Data published in patent publication US4046914A, “Therapeutically active substituted saturated and mono-and polyunsaturated alkyl-glycerylethers” (Astra Nutrition AB, priority 1975, dated 1977).

System: He La cells
Experiment: growth of He La cells (cell counts in Burker chamber)
Format: cell-based
Procedure: Hank's solution containing 0,5 % hydrolysate of lactalbumin, 7 % calf serum and with 7 ml 0,15 % sodium bicarbonate and 20-40.000 I.U. of penicillin and streptomycin added per 100 ml was used for the cultivation of the He La cells. pH was 7,4 at the beginning of the experiment. The medium was changed 2 times per week. A suspension of He La cells was obtained by treatment with versene. The glycerol ethers were dissolved in the medium in concentrations of 1, 5, 25 and 100 μg/ml. 1,5 ml of cell suspension, containing 10^6 cells/ml, was added to 18,5 ml medium. The growth was registered by counting the cells in a Burker chamber.

Q: How did the cytostatic action (25 μg/ml) turn out when `CCCCCCCCCCCCCCC(COCC(O)CO)OC` (centres unmarked) [AII, 1-O-(2-methoxyhexadecyl)-glycerol] was run?
A: acted clearly cytostatically

Q: And the “time to completely suppressed growth” value (25 μg/ml)?
A: about 15 days

Q: What about the “effect on He La cell growth” value (25 μg/ml, 14 days at 37° C) of the same compound?
A: growth inhibiting and later on a cell killing effect

Q: And the Cell counts (Table II, 5 μg/ml, 1 day, controls 54)?
A: 201

Q: And the Cell counts (Table II, 5 μg/ml, 3 days, controls 122)?
A: 137

Q: What about the Cell counts (Table II, 5 μg/ml, 6 days, controls 186) of the same compound?
A: 225

Q: And the Cell counts (Table II, 25 μg/ml, 1 day, controls 54)?
A: 206

Q: What about the Cell counts (Table II, 25 μg/ml, 3 days, controls 122) of the same compound?
A: 91

Q: What about the Cell counts (Table II, 25 μg/ml, 6 days, controls 186) of the same compound?
A: 148

Q: And the Cell counts (Table II, 100 μg/ml, 1 day, controls 54)?
A: 157

Q: And the Cell counts (Table II, 100 μg/ml, 3 days, controls 122)?
A: All cells dead

Q: What about the Cell counts (Table II, 100 μg/ml, 6 days, controls 186) of the same compound?
A: All cells dead

Q: What about the Cell counts (Table III, 5 μg/ml, 1 day, controls 78) of the same compound?
A: 63

Q: And the Cell counts (Table III, 5 μg/ml, 2 days, controls 98)?
A: 113

Q: And the Cell counts (Table III, 5 μg/ml, 6 days, controls 228)?
A: 205

Q: What about the Cell counts (Table III, 5 μg/ml, 10 days, controls 359) of the same compound?
A: 407

Q: And the Cell counts (Table III, 25 μg/ml, 1 day, controls 78)?
A: 64

Q: What about the Cell counts (Table III, 25 μg/ml, 2 days, controls 98) of the same compound?
A: 154

Q: What about the Cell counts (Table III, 25 μg/ml, 6 days, controls 228) of the same compound?
A: 160

Q: And the Cell counts (Table III, 25 μg/ml, 10 days, controls 359)?
A: 272

Q: What about the Cell counts (Table IV, 1 μg/ml, 2 days, controls 138) of the same compound?
A: 121

Q: What about the Cell counts (Table IV, 1 μg/ml, 5 days, controls 172) of the same compound?
A: 271

Q: What about the Cell counts (Table IV, 1 μg/ml, 8 days, controls 520) of the same compound?
A: 598

Q: What about the Cell counts (Table IV, 1 μg/ml, 11 days, controls 757) of the same compound?
A: 546

Q: What about the Cell counts (Table IV, 1 μg/ml, 14 days, controls 649) of the same compound?
A: 557

Q: And the Cell counts (Table IV, 5 μg/ml, 2 days, controls 138)?
A: 113

Q: And the Cell counts (Table IV, 5 μg/ml, 5 days, controls 172)?
A: 200

Q: What about the Cell counts (Table IV, 5 μg/ml, 8 days, controls 520) of the same compound?
A: 488

Q: What about the Cell counts (Table IV, 5 μg/ml, 11 days, controls 757) of the same compound?
A: 546

Q: And the Cell counts (Table IV, 5 μg/ml, 14 days, controls 649)?
A: 637

Q: What about the Cell counts (Table IV, 25 μg/ml, 2 days, controls 138) of the same compound?
A: 107

Q: And the Cell counts (Table IV, 25 μg/ml, 5 days, controls 172)?
A: 107

Q: And the Cell counts (Table IV, 25 μg/ml, 8 days, controls 520)?
A: 241

Q: And the Cell counts (Table IV, 25 μg/ml, 11 days, controls 757)?
A: 112

Q: And the Cell counts (Table IV, 25 μg/ml, 14 days, controls 649)?
A: 0

Q: And the Cell counts (Table V, 1 μg/ml, 3 days, controls 210)?
A: 293

Q: What about the Cell counts (Table V, 1 μg/ml, 6 days after transfer, controls 176) of the same compound?
A: 169

Q: What about the Cell counts (Table V, 1 μg/ml, 8 days, controls 510) of the same compound?
A: 498

Q: And the Cell counts (Table V, 5 μg/ml, 3 days, controls 210)?
A: 246

Q: And the Cell counts (Table V, 5 μg/ml, 6 days after transfer, controls 176)?
A: 136

Q: And the Cell counts (Table V, 5 μg/ml, 8 days, controls 510)?
A: 517
